Laboratory results from paper PMC10137179, “Assessment of Covalently Binding Warhead Compounds in the Validation of the Cytomegalovirus Nuclear Egress Complex as an Antiviral Target” (Cells, 2023).

Columns and labels:
[1] = molecular target: T1, pUL97–cyclin H interaction (LgBiT::UL97(231–280)-Flag + SmBiT::CycH-HA) (UniProt P16788+P51946); assay: NanoBiT specificity control, pUL97–cyclin H; type: cell-based, HCMV; settings: ibrutinib 3.75–30 µM
T1 construct: open reading frames coding for HCMV pUL97 (amino acids 231–280); expressed in transfected cells; host or cells: 293T
T1 sequence (P16788 231-280 limits assumed): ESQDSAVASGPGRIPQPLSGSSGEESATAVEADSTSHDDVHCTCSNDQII
T1 sequence (P51946 1-323): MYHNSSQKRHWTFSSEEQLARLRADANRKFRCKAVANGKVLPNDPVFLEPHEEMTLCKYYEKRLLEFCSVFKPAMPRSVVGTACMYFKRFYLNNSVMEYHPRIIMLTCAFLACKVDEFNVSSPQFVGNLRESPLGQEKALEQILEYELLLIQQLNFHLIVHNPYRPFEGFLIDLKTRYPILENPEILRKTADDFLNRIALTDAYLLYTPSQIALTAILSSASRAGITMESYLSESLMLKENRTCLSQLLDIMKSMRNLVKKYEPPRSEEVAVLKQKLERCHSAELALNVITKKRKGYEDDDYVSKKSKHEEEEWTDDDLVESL

[2] = molecular target: T2, HCMV pUL50-HA + pUL53-Flag (Human cytomegalovirus, UniProt P16791); assay: Confocal imaging of core NEC localization in cotransfected HeLa cells, HCMV; type: cell-based; settings: 4 µM, 3 d p.t.
T2 construct: expressed in transfected cells; host or cells: HeLa
T2 sequence (P16791 whole entry): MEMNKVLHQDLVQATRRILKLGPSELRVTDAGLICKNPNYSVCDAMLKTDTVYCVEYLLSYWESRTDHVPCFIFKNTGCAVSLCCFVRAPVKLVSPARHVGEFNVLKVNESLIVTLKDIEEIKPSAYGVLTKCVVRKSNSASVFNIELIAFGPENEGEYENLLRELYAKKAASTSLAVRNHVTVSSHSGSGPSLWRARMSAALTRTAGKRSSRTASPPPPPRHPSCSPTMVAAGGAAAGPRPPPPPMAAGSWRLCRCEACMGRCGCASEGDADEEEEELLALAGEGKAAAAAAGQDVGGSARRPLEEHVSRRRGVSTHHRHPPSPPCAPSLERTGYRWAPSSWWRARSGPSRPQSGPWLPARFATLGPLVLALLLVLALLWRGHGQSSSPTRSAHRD
Protocol: HFF or HFF-UL50 cells, either Dox-induced or uninduced, were seeded in 6-well plates with a density of 2 × 10^5 cells per well, grown on coverslips and infected with HCMV AD169 or AD169 ∆UL50-ΣUL53. For infection experiments with the recombinant virus, different Shield-1 and Dox conditions were analyzed. Antivirals were added post-infection as described for the experiments. For transfection experiments, HeLa cells were seeded on coverslips in 6-well plates with a density of 3.25 × 10^5 cells per well for cotransfection with the indicated NEC expression plasmids (HSV-1 HA-UL34 + Flag-UL31, HCMV pUL50-HA + pUL53-Flag and EBV HA-BFRF1 + Flag-BFLF2). At indicated time points after virus infection, or 3 days post-transfection, cells were fixed, applied for IF staining as described previously and analyzed using a TCS SP5 confocal laser-scanning microscope with Leica LAS AF software (Leica Microsystems, Wetzlar, Germany). […] The device features a Leica photomultiplier tube (PMT) and a hybrid detector (HyD). Images were further processed using Photoshop CS5 (Adobe Inc., San José, CA, USA). […] Microscopic counting was performed for quantitation of colocalization patterns of two different proteins, as achieved by counting 50 cells per biological triplicate. […]

C=CC(=O)N1CCC[C@@H](n2nc(-c3ccc(Oc4ccccc4)cc3)c3c(N)ncnc32)C1 [ibrutinib]
effect on pUL97–cyclin H NanoBiT interaction (in words) [1]: inactive
core NEC nuclear rim localization (in words) [2]: predominant dot-like aggregation and speckle formation
